Data from patent US20170119640A1, “Methods of Improving Glucose Tolerance, Hair Regrowth, and Bio-Availability” (priority 2015, published 2017).

Experiments:
[1] = tested on: female Albino Wistar rats; experiment: glucose tolerance test; format: in vivo, rat; conditions: six month old female Albino Wistar rats; 25, 50, 75 mg/kg body wt daily for four months; 6 h fast, 2 g/kg intraperitoneally, blood at 0-120 min; p<0.01 ResArgin, p<0.05 resveratrol
Protocol: (§1) To determine the efficacy of resveratrol-arginine conjugate, six month old female Albino Wistar rats were divided into seven groups (six rats per group) and given the following daily treatment for four months:
(§2) Group 2: 25 mg ResArgin/kg body wt; Group 3: 50 mg ResArgin/kg body wt; Group 4: 75 mg ResArgin/kg body wt; Group 5: 25 mg Resveratrol/kg body wt; Group 6: 50 mg Resveratrol/kg body wt;
Group 7: 75 mg Resveratrol/kg body wt. In one embodiment, glucose tolerance levels were tested via a glucose tolerance test and analysis was performed. Compared to the Control group, glucose tolerance was improved in the ResArgin and resveratrol groups (p<0.01 and p<0.05 respectively) over the experimental period.
In one embodiment, glucose tolerance tests were performed after having the rats fast for 6 hours and injecting 2 g/kg body weight intraperitoneally. Blood was then collected from the tail vein at 0, 15, 30, 60 and 120 minutes after injection.

[2] = tested on: female Albino Wistar rats; experiment: hair regrowth assay; format: in vivo, rat; conditions: six month old female Albino Wistar rats; 25, 50, 75 mg/kg body wt daily for four months; dorsal hair plucked from 1.5 cm×1.5 cm, scored two weeks later from digital photographs
Protocol: as §1, §2
In another embodiment, hair regrowth assay was done and quantified. Compared to the Control group, hair regrowth was improved in the ResArgin and resveratrol groups over the experimental period.
In the hair regrowth assay, dorsal hair was removed by plucking from a square of approximately 1.5 cm×1.5 cm. Hair growth and re-growth was scored two weeks later on the basis of digital photographs.

Oc1ccc(C=Cc2cc(O)cc(O)c2)cc1 [resveratrol]
glucose tolerance compared to the Control group [1]: improved
hair regrowth compared to the Control group [2]: improved
